Values after ≈ are worked out from the molar mass of the structure shown.
Assays:
Escherichia coli [1] = assay: Antimicrobial activity against Escherichia coli HX74T expressing CTX-M-3 by CLSI method; type: functional
Klebsiella pneumoniae [2] = assay: Antimicrobial activity against carbapenem-resistant Klebsiella pneumoniae PU105 deficient TEM-1, SHV-12, CTX-M-14, DHA-1, qnrB10/B4-like, aac(6')-Ib-cr, ompK35/36 by CLSI method; type: functional
Enterobacter cloacae [3] = assay: Antimicrobial activity against carbapenem-resistant Enterobacter cloacae WH103 deficient in IMP-4, TEM-1, CTX-M-3, qnrS1, ompC by CLSI method; type: functional
Enterobacter cloacae [4] = assay: Antimicrobial activity against carbapenem-resistant Enterobacter cloacae SZ92 deficient in IMP-4, TEM-1, CTX-M-14, DHA-1, qnrB10/B4-like, aac(6')-Ib, ompC by CLSI method; type: functional
Escherichia coli [5] = assay: Antimicrobial activity against carbapenem-resistant Escherichia coli HX74 deficient in TEM-1, CTX-M-14, CTX-M-3, aac(6')-Ibcr, ompC/F by CLSI method; type: functional
Enterobacter cloacae [6] = assay: Antimicrobial activity against carbapenem-resistant Enterobacter cloacae RJ94 deficient in IMP-4, TEM-1, CTX-M-3, ompC by CLSI method; type: functional
Citrobacter freundii [7] = assay: Antimicrobial activity against Citrobacter freundii SZ63T expressing IMP-4, qnrS1by CLSI method; type: functional
Escherichia coli [8] = assay: Antimicrobial activity against Escherichia coli PU60T expressing CMY-2 by CLSI method; type: functional
Escherichia coli [9] = assay: Antimicrobial activity against Escherichia coli ZJ86T expressing KPC-2 by CLSI method; type: functional
Klebsiella aerogenes [10] = assay: Antimicrobial activity against carbapenem-resistant Enterobacter aerogenes WH85 deficient in TEM-1, CTX-M-3, ompC/F by CLSI method; type: functional
Klebsiella pneumoniae [11] = assay: Antimicrobial activity against carbapenem-resistant Klebsiella pneumoniae GZ84 deficient in SHV-11, aac(6')-Ib-cr, ompK35 by CLSI method; type: functional
Enterobacter cloacae [12] = assay: Antimicrobial activity against carbapenem-resistant Enterobacter cloacae GX24 deficient in TEM-1, DHA-1, aac(6')-Ib, ompC by CLSI method; type: functional
Klebsiella pneumoniae [13] = assay: Antimicrobial activity against carbapenem-resistant Klebsiella pneumoniae SX67 deficient in SHV-2, CTX-M-14, DHA-1, qnrB6/S1, aac(6')-Ib-cr, ompK35/36 by CLSI method; type: functional
Klebsiella pneumoniae [14] = assay: Antimicrobial activity against Klebsiella pneumoniae FZ49T expressing IMP-8, TEM-1, CTX-M-14, qnrB2, aac(6')-Ib by CLSI method; type: functional
Escherichia coli [15] = assay: Antimicrobial activity against carbapenem-resistant Escherichia coli PU43 deficient in TEM-1, CTX-M-14, aac(6')-Ib, ompC/F by CLSI method; type: functional
Citrobacter freundii [16] = assay: Antimicrobial activity against Citrobacter freundii RJ78 expressing CMY-2, qnrA1, aac(6')-Ib-cr, ompC by CLSI method; type: functional
Citrobacter freundii [17] = assay: Antimicrobial activity against Citrobacter freundii SZ62 expressing IMP-4, TEM-1, CMY-2, qnrS1, aac(6')-Ib-cr by CLSI method; type: functional
Escherichia coli [18] = assay: Antimicrobial activity against Escherichia coli C600 transconjugant WH77T expressing IMP-4, TEM-1, CTX-M-3, qnrS1 by CLSI method
Klebsiella pneumoniae [19] = assay: Antimicrobial activity against carbapenem-resistant Klebsiella pneumoniae XJ81 deficient in TEM-1, SHV-12, DHA-1, aac(6')-Ib, ompK35/36 by CLSI method; type: functional
Klebsiella aerogenes [20] = assay: Antimicrobial activity against carbapenem-resistant Enterobacter aerogenes PU41 deficient in CTX-M-14, DHA-1, qnrS1, ompC DEc, ompF by CLSI method; type: functional
Escherichia coli [21] = assay: Antimicrobial activity against Escherichia coli ZJ87 expressing KPC-2, TEM-1, ompC by CLSI method; type: functional
Escherichia coli [22] = assay: Antimicrobial activity against carbapenem-resistant Escherichia coli PU102 deficient in TEM-1, CTX-M-14, CMY-2, aac(6')-Ib, ompC DEc, ompF by CLSI method; type: functional
Escherichia coli [23] = assay: Antimicrobial activity against Escherichia coli PU101T expressing CMY-2 by CLSI method; type: functional
Escherichia coli [24] = assay: Antimicrobial activity against Escherichia coli C600 transconjugant WH76T expressing IMP-4, TEM-1, CTX-M-3, qnrS1 by CLSI method
Klebsiella pneumoniae [25] = assay: Antimicrobial activity against Klebsiella pneumoniae ZJ71T expressing KPC-2 by CLSI method; type: functional
Klebsiella pneumoniae [26] = assay: Antimicrobial activity against carbapenem-resistant Klebsiella pneumoniae ZJ18 deficient in KPC-2, SHV-28, DHA-1, ompK35 by CLSI method; type: functional
Klebsiella pneumoniae [27] = assay: Antimicrobial activity against carbapenem-resistant Klebsiella pneumoniae FZ49 deficient in IMP-8, TEM-1, SHV-11, CTX-M-14, qnrB2, aac(6')-Ib, ompK35/36 by CLSI method; type: functional
Klebsiella pneumoniae [28] = assay: Antimicrobial activity against carbapenem-resistant Klebsiella pneumoniae PU8 deficient in SHV-11, DHA-1, aac(6')-Ib-cr, ompK35/36 by CLSI method; type: functional
Klebsiella pneumoniae [29] = assay: Antimicrobial activity against Klebsiella pneumoniae ZJ68T expressing CTX-M-15 by CLSI method; type: functional
Klebsiella pneumoniae [30] = assay: Antimicrobial activity against Klebsiella pneumoniae WH76 expressing IMP-4, TEM-1, SHV-14, CTX-M-3, qnrS1 by CLSI method; type: functional
Klebsiella pneumoniae [31] = assay: Antimicrobial activity against carbapenem-resistant Klebsiella pneumoniae SZ61 deficient in TEM-1, SHV-1a, CMY-2, ompK35/36 by CLSI method; type: functional
Klebsiella pneumoniae [32] = assay: Antimicrobial activity against carbapenem-resistant Klebsiella pneumoniae CY75 deficient in SHV-11, DHA-1, ompK35/36 by CLSI method; type: functional
Enterobacter cloacae [33] = assay: Antimicrobial activity against carbapenem-resistant Enterobacter cloacae NJ90 deficient in CTX-M-14, ompC/F by CLSI method; type: functional
Klebsiella pneumoniae [34] = assay: Antimicrobial activity against Klebsiella pneumoniae CY1T expressing SHV-11, DHA-1 by CLSI method; type: functional
Escherichia coli [35] = assay: Antimicrobial activity against Escherichia coli C600 transconjugant GZ66T expressing SHV-11, DHA-1 by CLSI method
Klebsiella pneumoniae [36] = assay: Antimicrobial activity against carbapenem-resistant Klebsiella pneumoniae ZJ71 deficient in KPC-2, TEM-1, SHV-11, CTX-M-14, ompK35 by CLSI method; type: functional
Klebsiella pneumoniae [37] = assay: Antimicrobial activity against Klebsiella pneumoniae ZJ99 expressing KPC-2, CTX-M-3, qnrS1, ompK35 DE by CLSI method; type: functional
Enterobacter cloacae [38] = assay: Antimicrobial activity against carbapenem-resistant Enterobacter cloacae NJ88 deficient in CTX-M-14, ompC/F by CLSI method; type: functional
Klebsiella pneumoniae [39] = assay: Antimicrobial activity against carbapenem-resistant Klebsiella pneumoniae PU104 deficient in TEM-1, SHV-11, CTX-M-15, qnrS1, ompK35/36 by CLSI method; type: functional
Klebsiella pneumoniae [40] = assay: Antimicrobial activity against carbapenem-resistant Klebsiella pneumoniae GZ83 deficient in SHV-11, CTX-M-14, ompK35/36 by CLSI method; type: functional

CC(C)(O/N=C(\C(=O)N[C@@H]1C(=O)N2C(C(=O)[O-])=C(C[n+]3ccccc3)CS[C@H]12)c1csc(N)n1)C(=O)O [CEFTAZIDIME]
MIC (Escherichia coli [1]): 256 mg/L (≈ 468 µM) | MIC (Klebsiella pneumoniae [2]): > 256 mg/L | MIC (Enterobacter cloacae [3]): > 256 mg/L | MIC (Enterobacter cloacae [4]): > 256 mg/L | MIC (Escherichia coli [5]): 256 mg/L (≈ 468 µM) | MIC (Enterobacter cloacae [6]): > 256 mg/L | MIC (Citrobacter freundii [7]): > 256 mg/L | MIC (Escherichia coli [8]): 64 mg/L (≈ 117 µM) | MIC (Escherichia coli [9]): 32 mg/L (≈ 58.5 µM) | MIC (Klebsiella aerogenes [10]): 32 mg/L (≈ 58.5 µM) | MIC (Klebsiella pneumoniae [11]): 256 mg/L (≈ 468 µM) | MIC (Enterobacter cloacae [12]): > 256 mg/L | MIC (Klebsiella pneumoniae [13]): > 256 mg/L | MIC (Klebsiella pneumoniae [14]): > 256 mg/L | MIC (Escherichia coli [15]): 32 mg/L (≈ 58.5 µM) | MIC (Citrobacter freundii [16]): 128 mg/L (≈ 234 µM) | MIC (Citrobacter freundii [17]): > 256 mg/L | MIC (Escherichia coli [18]): > 256 mg/L | MIC (Klebsiella pneumoniae [19]): > 256 mg/L | MIC (Klebsiella aerogenes [20]): 64 mg/L (≈ 117 µM) | MIC (Escherichia coli [21]): 32 mg/L (≈ 58.5 µM) | MIC (Escherichia coli [22]): 64 mg/L (≈ 117 µM) | MIC (Escherichia coli [23]): > 256 mg/L | MIC (Escherichia coli [24]): > 256 mg/L | MIC (Klebsiella pneumoniae [25]): 32 mg/L (≈ 58.5 µM) | MIC (Klebsiella pneumoniae [26]): 64 mg/L (≈ 117 µM) | MIC (Klebsiella pneumoniae [27]): > 256 mg/L | MIC (Klebsiella pneumoniae [28]): 256 mg/L (≈ 468 µM) | MIC (Klebsiella pneumoniae [29]): 256 mg/L (≈ 468 µM) | MIC (Klebsiella pneumoniae [30]): 256 mg/L (≈ 468 µM) | MIC (Klebsiella pneumoniae [31]): 256 mg/L (≈ 468 µM) | MIC (Klebsiella pneumoniae [32]): 256 mg/L (≈ 468 µM) | MIC (Enterobacter cloacae [33]): > 256 mg/L | MIC (Klebsiella pneumoniae [34]): 64 mg/L (≈ 117 µM) | MIC (Escherichia coli [35]): 128 mg/L (≈ 234 µM) | MIC (Klebsiella pneumoniae [36]): 32 mg/L (≈ 58.5 µM) | MIC (Klebsiella pneumoniae [37]): 64 mg/L (≈ 117 µM) | MIC (Enterobacter cloacae [38]): > 256 mg/L | MIC (Klebsiella pneumoniae [39]): > 256 mg/L | MIC (Klebsiella pneumoniae [40]): > 256 mg/L

CN(C)c1cc(NC(=O)CNC(C)(C)C)c(O)c2c1C[C@H]1C[C@H]3[C@H](N(C)C)C(O)=C(C(N)=O)C(=O)[C@@]3(O)C(O)=C1C2=O [TIGECYCLINE]
MIC (Escherichia coli [1]): 0.125 mg/L (≈ 0.213 µM) | MIC (Klebsiella pneumoniae [2]): 2 mg/L (≈ 3.41 µM) | MIC (Enterobacter cloacae [3]): 1 mg/L (≈ 1.71 µM) | MIC (Enterobacter cloacae [4]): 1 mg/L (≈ 1.71 µM) | MIC (Escherichia coli [5]): 0.064 mg/L (≈ 0.109 µM) | MIC (Enterobacter cloacae [6]): 1 mg/L (≈ 1.71 µM) | MIC (Citrobacter freundii [7]): 0.13 mg/L (≈ 0.222 µM) | MIC (Escherichia coli [8]): 0.125 mg/L (≈ 0.213 µM) | MIC (Escherichia coli [9]): 0.25 mg/L (≈ 0.427 µM) | MIC (Klebsiella aerogenes [10]): 0.064 mg/L (≈ 0.109 µM) | MIC (Klebsiella pneumoniae [11]): 0.5 mg/L (≈ 0.854 µM) | MIC (Enterobacter cloacae [12]): 1 mg/L (≈ 1.71 µM) | MIC (Klebsiella pneumoniae [13]): 0.5 mg/L (≈ 0.854 µM) | MIC (Klebsiella pneumoniae [14]): 0.06 mg/L (≈ 0.102 µM) | MIC (Escherichia coli [15]): 0.25 mg/L (≈ 0.427 µM) | MIC (Citrobacter freundii [16]): 1 mg/L (≈ 1.71 µM) | MIC (Citrobacter freundii [17]): 1 mg/L (≈ 1.71 µM) | MIC (Escherichia coli [18]): 0.06 mg/L (≈ 0.102 µM) | MIC (Klebsiella pneumoniae [19]): 0.5 mg/L (≈ 0.854 µM) | MIC (Klebsiella aerogenes [20]): 1 mg/L (≈ 1.71 µM) | MIC (Escherichia coli [21]): 0.25 mg/L (≈ 0.427 µM) | MIC (Escherichia coli [22]): 0.25 mg/L (≈ 0.427 µM) | MIC (Escherichia coli [23]): 0.25 mg/L (≈ 0.427 µM) | MIC (Escherichia coli [24]): 0.06 mg/L (≈ 0.102 µM) | MIC (Klebsiella pneumoniae [25]): 0.13 mg/L (≈ 0.222 µM) | MIC (Klebsiella pneumoniae [26]): 1 mg/L (≈ 1.71 µM) | MIC (Klebsiella pneumoniae [27]): 0.5 mg/L (≈ 0.854 µM) | MIC (Klebsiella pneumoniae [28]): 1 mg/L (≈ 1.71 µM) | MIC (Klebsiella pneumoniae [29]): 0.064 mg/L (≈ 0.109 µM) | MIC (Klebsiella pneumoniae [30]): 0.5 mg/L (≈ 0.854 µM) | MIC (Klebsiella pneumoniae [31]): 4 mg/L (≈ 6.83 µM) | MIC (Klebsiella pneumoniae [32]): 1 mg/L (≈ 1.71 µM) | MIC (Enterobacter cloacae [33]): 0.5 mg/L (≈ 0.854 µM) | MIC (Klebsiella pneumoniae [34]): 1 mg/L (≈ 1.71 µM) | MIC (Escherichia coli [35]): 0.125 mg/L (≈ 0.213 µM) | MIC (Klebsiella pneumoniae [36]): 0.13 mg/L (≈ 0.222 µM) | MIC (Klebsiella pneumoniae [37]): 1 mg/L (≈ 1.71 µM) | MIC (Enterobacter cloacae [38]): 0.5 mg/L (≈ 0.854 µM) | MIC (Klebsiella pneumoniae [39]): 0.5 mg/L (≈ 0.854 µM) | MIC (Klebsiella pneumoniae [40]): 0.5 mg/L (≈ 0.854 µM)

— ChEMBL document CHEMBL1212738, “Phenotypic and genotypic characterization of Enterobacteriaceae with decreased susceptibility to carbapenems: results from large hospital-based surveillance studies in China” (2010)
